Consider 17 molecules from US20230072421A1, “TARGETED RADIOPHARMACEUTICALS FOR THE DIAGNOSIS AND TREATMENT OF PROSTATE CANCER” (Bayer AS, priority 2019, published 2023).

One may read the remaining activity as the signal under treatment as a percentage of the control signal.

The test addresses T1, PSMA-expressing LNCaP cells (Homo sapiens, UniProt Q04609).
T1 construct: PSMA-expressing LNCaP cells; endogenous in cells; host or cells: LNCaP
Description: Binding competition assay against 3H-PSMA-617 on LNCaP cells. As to conditions: for competition against 3H-PSMA-617 on PSMA-expressing LNCaP cells (in words): comparison between examples. Put shortly: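 Compounds added to LNCaP cells in growth medium, 2 h at 37 °C, 5% CO2. After two ice-cold PBS washes, cells lysed in 0.3 M NaOH and bound radioactivity measured by liquid scintillation counting.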

The mark [1] stands for this setting: LNCaP cells, 10 nM 3H-PSMA-617, competing non-radiolabeled compound 10 nM, 2 h at 37° C., triplicates.
Setting [2] is: LNCaP cells, 10 nM 3H-PSMA-617, competing non-radiolabeled compound 100 nM, 2 h at 37° C., triplicates.

T1 sequence (Q04609 whole entry): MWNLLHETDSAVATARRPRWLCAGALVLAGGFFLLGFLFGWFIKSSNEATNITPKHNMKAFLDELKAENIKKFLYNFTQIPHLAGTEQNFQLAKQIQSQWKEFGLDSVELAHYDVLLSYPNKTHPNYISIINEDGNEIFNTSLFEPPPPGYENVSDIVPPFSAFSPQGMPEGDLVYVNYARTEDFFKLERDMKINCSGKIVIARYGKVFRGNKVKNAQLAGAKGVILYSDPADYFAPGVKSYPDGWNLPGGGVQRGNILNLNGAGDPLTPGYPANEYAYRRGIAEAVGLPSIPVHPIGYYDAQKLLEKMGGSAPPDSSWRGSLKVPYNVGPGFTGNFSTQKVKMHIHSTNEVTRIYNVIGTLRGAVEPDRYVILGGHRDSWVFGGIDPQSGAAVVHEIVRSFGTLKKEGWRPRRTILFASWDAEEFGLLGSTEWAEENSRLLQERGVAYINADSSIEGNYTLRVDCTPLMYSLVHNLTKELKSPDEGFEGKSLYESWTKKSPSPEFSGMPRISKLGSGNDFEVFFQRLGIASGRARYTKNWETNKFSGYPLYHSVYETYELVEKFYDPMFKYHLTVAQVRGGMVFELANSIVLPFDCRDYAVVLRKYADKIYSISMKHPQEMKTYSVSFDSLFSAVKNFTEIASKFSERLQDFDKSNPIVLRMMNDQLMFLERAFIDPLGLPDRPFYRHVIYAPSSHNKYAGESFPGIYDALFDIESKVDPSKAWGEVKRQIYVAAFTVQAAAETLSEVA

Take `Cc1ccc(C[C@H](NC(=O)[C@H]2CC[C@H](CN)CC2)C(=O)NCCCC[C@H](NC(=O)N[C@@H](CCC(=O)O)C(=O)O)C(=O)O)cc1` [Example 13-A, N^6—{N-[(1r,4S)-4-(aminomethyl)cyclohexane-1-carbonyl]-4-methyl-L-phenylalanyl}-N^2-{[(1S)-1,3-dicarboxypropyl]carbamoyl}-L-lysine]: under setting [1], the remaining activity at 0.01 µM was 108%. Moreover, the remaining activity at 0.1 µM under setting [2] is 124%.
For `NC[C@H]1CC[C@H](C(=O)N(Cc2cccc(=O)[nH]2)[C@@H](Cc2ccc3ccccc3c2)C(=O)NCCCC[C@H](NC(=O)N[C@@H](CCC(=O)O)C(=O)O)C(=O)O)CC1` [Example 21-A, (3S,10S,14S)-1-[(1r,4S)-4-(aminomethyl)cyclohexyl]-3-[(naphthalen-2-yl)methyl]-1,4,12-trioxo-2-[(6-oxo-1,6-dihydropyridin-2-yl)methyl]-2,5,11,13-tetraazahexadecane-10,14,16-tricarboxylic acid], in that order: 70% and 58%.
For `NC1CC2(C1)CC(C(=O)N[C@@H](Cc1ccc3ccccc3c1)C(=O)NCCCC[C@H](NC(=O)N[C@@H](CCC(=O)O)C(=O)O)C(=O)O)C2` (stereo partly drawn) [Example 47-A, (3S,10S,14S)-1-(6-aminospiro[3.3]heptan-2-yl)-3-[(naphthalen-2-yl)methyl]-1,4,12-trioxo-2,5,11,13-tetraazahexadecane-10,14,16-tricarboxylic acid], in that order: 94% and 43%.
In the case of `O=C(O)CC[C@H](NC(=O)N[C@@H](CCCCNC(=O)[C@H](Cc1ccc2ccccc2c1)NC(=O)c1ccc(CNC(=O)CN2CCN(CC(=O)O)CCN(CC(=O)O)CCN(CC(=O)O)CC2)cn1)C(=O)O)C(=O)O` [Example 25-B, (3S,10S,14S)-3-[(naphthalen-2-yl)methyl]-1,4,12-trioxo-1-[5-({2-[4,7,10-tris(carboxymethyl)-1,4,7,10-tetraazacyclododecan-1-yl]acetamido}methyl)pyridin-2-yl]-2,5,11,13-tetraazahexadecane-10,14,16-tricarboxylic acid], the “competition against 3H-PSMA-617 on PSMA-expressing LNCaP cells (in words)” value was “improved competition in comparison to the cyclohexyl examples 1-A and 1-B”. Besides, under setting [1], the remaining activity at 0.01 µM came to 54%. Moreover, the remaining activity at 0.1 µM under setting [2] was determined as 5%.
As for `O=C(O)CC[C@H](NC(=O)N[C@@H](CCCCNC(=O)[C@H](Cc1ccc2ccccc2c1)NC(=O)[C@H]1CC[C@H](CNC(=O)CN2CCN(CC(=O)O)CCN(CC(=O)O)CCN(CC(=O)O)CC2)CC1)C(=O)O)C(=O)O` [Example 1-B, (3S,10S,14S)-3-[(naphthalen-2-yl)methyl]-1,4,12-trioxo-1-[(1r,4S)-4-({2-[4,7,10-tris(carboxymethyl)-1,4,7,10-tetraazacyclododecan-1-yl]acetamido}methyl)cyclohexyl]-2,5,11,13-tetraazahexadecane-10,14,16-tricarboxylic acid, reference compound], the remaining activity at 0.01 µM under setting [1] was found to be 66%. For the same molecule, the remaining activity at 0.1 µM under setting [2] stood at 17%.
As to `NCc1ccc(C(=O)N[C@@H](Cc2ccc3ccccc3c2)C(=O)NCCCC[C@H](NC(=O)N[C@@H](CCC(=O)O)C(=O)O)C(=O)O)cn1` [Example 26-A, (3S,10S,14S)-1-[6-(aminomethyl)pyridin-3-yl]-3-[(naphthalen-2-yl)methyl]-1,4,12-trioxo-2,5,11,13-tetraazahexadecane-10,14,16-tricarboxylic acid], the “competition against 3H-PSMA-617 on PSMA-expressing LNCaP cells (in words)” value is “improved competition in comparison to the cyclohexyl examples 1-A and 1-B”. For the same molecule, the remaining activity at 0.01 µM under setting [1] is 33%. Under setting [2], the remaining activity at 0.1 µM was 6%.
With `NC[C@H]1CC[C@H](C(=O)N[C@@H](Cc2ccc(O)cc2)C(=O)NCCCC[C@H](NC(=O)N[C@@H](CCC(=O)O)C(=O)O)C(=O)O)CC1` [Example 15-A, N^6—{N-[(1r,4S)-4-(aminomethyl)cyclohexane-1-carbonyl]-L-tyrosyl}-N^2-{[(1S)-1,3-dicarboxypropyl]carbamoyl}-L-lysine], the remaining activity at 0.01 µM under setting [1] turned out to be 133%. Also, under setting [2], the remaining activity at 0.1 µM was found to be 111%.
For `O=C(O)CC[C@H](NC(=O)N[C@@H](CCCCNC(=O)[C@H](Cc1ccc2ccccc2c1)NC(=O)Cc1ccc(NC(=O)CN2CCN(CC(=O)O)CCN(CC(=O)O)CCN(CC(=O)O)CC2)cc1)C(=O)O)C(=O)O` [Example 23-B, (4S,11S,15S)-4-[(naphthalen-2-yl)methyl]-2,5,13-trioxo-1-(4-{2-[4,7,10-tris(carboxymethyl)-1,4,7,10-tetraazacyclododecan-1-yl]acetamido}phenyl)-3,6,12,14-tetraazaheptadecane-11,15,17-tricarboxylic acid], in that order: 66% and 18%.
For `NC[C@H]1CC[C@H](C(=O)N[C@@H](Cc2cnc3ccccc3c2)C(=O)NCCCC[C@H](NC(=O)N[C@@H](CCC(=O)O)C(=O)O)C(=O)O)CC1` [Example 22-A, N^6—{N-[(1r,4S)-4-(aminomethyl)cyclohexane-1-carbonyl]-3-(quinolin-3-yl)-L-alanyl}-N^2-{[(1S)-1,3-dicarboxypropyl]carbamoyl}-L-lysine] the same measures were 113% and 40%.
`O=C(O)CC[C@H](NC(=O)N[C@@H](CCCCNC(=O)[C@H](Cc1ccc2ccccc2n1)NC(=O)C1CCC(CNC(=O)C[N+]23CC[N+]45CCN6CC[N+]7(CC2)CC(=O)[OH+][Th]347([O]C(=O)C6)[O]C(=O)C5)CC1)C(=O)O)C(=O)O` (stereo partly drawn) [Example 17-B-232Th]: the “% remaining 3H-PSMA-617 @ 10 nM (mean)” value under setting [1] is listed as 46%. Under setting [2], the “% remaining 3H-PSMA-617 @ 100 nM (mean)” value was found to be 10%.
For the molecule `NCc1ccc(C(=O)N[C@@H](Cc2cnc3ccccc3c2)C(=O)NCCCC[C@H](NC(=O)N[C@@H](CCC(=O)O)C(=O)O)C(=O)O)nc1` [Example 32-A, N^6—{N-[5-(aminomethyl)pyridine-2-carbonyl]-3-(quinolin-3-yl)-L-alanyl}-N^2-{[(1S)-1,3-dicarboxypropyl]carbamoyl}-L-lysine], under setting [1], the remaining activity at 0.01 µM turned out to be 84%. Further, under setting [2], the remaining activity at 0.1 µM was determined as 46%.
Regarding `O=C(O)CC[C@H](NC(=O)N[C@@H](CCCCNC(=O)[C@@H](Cc1ccc2c(c1)CCCO2)NC(=O)[C@H]1CC[C@H](CNC(=O)CN2CCN(CC(=O)O)CCN(CC(=O)O)CCN(CC(=O)O)CC2)CC1)C(=O)O)C(=O)O` [Example 38-B, N^6-{3-(3,4-dihydro-2H-1-benzopyran-6-yl)-N-[(1r,4S)-4-({2-[4,7,10-tris(carboxymethyl)-1,4,7,10-tetraazacyclododecan-1-yl]acetamido}methyl)cyclohexane-1-carbonyl]-D-alanyl}-N^2-{[(1S)-1,3-dicarboxypropyl]carbamoyl}-L-lysine], under setting [1], the remaining activity at 0.01 µM amounted to 76%. Further, the remaining activity at 0.1 µM under setting [2] was found to be 34%.
Turning to `NCc1ccc(C(=O)N[C@@H](Cc2ccc3ccccc3c2)C(=O)NCCCC[C@H](NC(=O)N[C@@H](CCC(=O)O)C(=O)O)C(=O)O)cc1` [Example 24-A, (3S,10S,14S)-1-[4-(aminomethyl)phenyl]-3-[(naphthalen-2-yl)methyl]-1,4,12-trioxo-2,5,11,13-tetraazahexadecane-10,14,16-tricarboxylic acid], the remaining activity at 0.01 µM under setting [1] worked out at 66%. Moreover, the remaining activity at 0.1 µM under setting [2] turned out to be 16%.
Regarding `NC[C@H]1CC[C@H](C(=O)N[C@@H](Cc2ccc3ccccc3n2)C(=O)NCCCC[C@H](NC(=O)N[C@@H](CCC(=O)O)C(=O)O)C(=O)O)CC1` [Example 17-A, N^6—{N-[(1r,4S)-4-(aminomethyl)cyclohexane-1-carbonyl]-3-(quinolin-2-yl)-L-alanyl}-N^2-{[(1S)-1,3-dicarboxypropyl]carbamoyl}-L-lysine], the remaining activity at 0.01 µM under setting [1] came to 84%. Further, under setting [2], the remaining activity at 0.1 µM came out at 56%.
For `Nc1ccc(CC(=O)N[C@@H](Cc2ccc3ccccc3c2)C(=O)NCCCC[C@H](NC(=O)N[C@@H](CCC(=O)O)C(=O)O)C(=O)O)cc1` [Example 23-A, (4S,11S,15S)-1-(4-aminophenyl)-4-[(naphthalen-2-yl)methyl]-2,5,13-trioxo-3,6,12,14-tetraazaheptadecane-11,15,17-tricarboxylic acid] the same measures were 59% and 26%.
On to `O=C(O)CC[C@@H](NC(=O)N[C@@H](CCCCNC(=O)[C@H](Cc1ccc2ccccc2c1)NC(=O)[C@H]1CC[C@H](CNC(=O)CN2CCN(CC(=O)O)CCN(CC(=O)O)CCN(CC(=O)O)CC2)CC1)C(=O)O)C(=O)O` [Example 1-B-D, (3S,10S,14R)-3-[(naphthalen-2-yl)methyl]-1,4,12-trioxo-1-[(1r,4S)-4-({2-[4,7,10-tris(carboxymethyl)-1,4,7,10-tetraazacyclododecan-1-yl]acetamido}methyl)cyclohexyl]-2,5,11,13-tetraazahexadecane-10,14,16-tricarboxylic acid], for which, under setting [1], the remaining activity at 0.01 µM came to 80%. Moreover, the remaining activity at 0.1 µM under setting [2] came out at 78%.
Regarding `O=C(O)CC[C@H](NC(=O)N[C@@H](CCCCNC(=O)[C@H](Cc1ccc2ccccc2c1)NC(=O)Cn1ccc(-c2ccc(NC(=O)CN3CCN(CC(=O)O)CCN(CC(=O)O)CCN(CC(=O)O)CC3)cc2)n1)C(=O)O)C(=O)O` [Example 28-B, (4S,11S,15S)-4-[(naphthalen-2-yl)methyl]-2,5,13-trioxo-1-[3-(4-{2-[4,7,10-tris(carboxymethyl)-1,4,7,10-tetraazacyclododecan-1-yl]acetamido}phenyl)-1H-pyrazol-1-yl]-3,6,12,14-tetraazaheptadecane-11,15,17-tricarboxylic acid], the remaining activity at 0.01 µM under setting [1] came to 33%. Under setting [2], the remaining activity at 0.1 µM was determined as 90%.
